≈ marks a conversion by molar mass, not a printed value.
Experiments:
Caco-2 permeability = type: in vitro ADME; settings: human, apical to basolateral
Method: Caco-2 cells are widely used as an in vitro model for predicting human drug absorption. The Caco-2 cell line is derived from a human colorectal carcinoma, and when cultured, the cells spontaneously differentiate into monolayers of polarised enterocytes. The cells are seeded on Transwell™ plates and form a confluent monolayer over 20 days prior to the experiment. On day 20, the test compound is added to the apical side of the membrane and the transport of the compound across the monolayer is monitored over a 2 hour time period. To study drug efflux, it is also necessary to investigate transport of the compound from the basolateral compartment to the apical compartment. The permeability coefficient (Papp) is calculated from the following equation: […]
Where dQ/dt is the rate of permeation of the drug across the cells, CO is the donor compartment concentration at time zero and A is the area of the cell monolayer.

[1] = Plasma protein binding assay (equilibrium dialysis); type: in vitro ADME; settings: 37° C., extrapolated fraction unbound
Method: Equilibrium dialysis is used to determine the extent of binding of a compound to plasma proteins. A semi-permeable membrane separates a protein-containing compartment from a protein-free compartment. The system is allowed to equilibrate at 37° C. The test compound present in each compartment is quantified by LC-MS/MS. The extent of binding is reported as a fraction unbound (fu) value which is calculated as fu=1−(PC−PF)/PC. PC=Test compound concentration in protein-containing compartment. PF=Test compound concentration in protein-free compartment. In addition to using whole plasma, the plasma protein binding assay can be performed using two other ratios of plasma (10% or 50% plasma in buffer v/v). The following equations are used to convert from a fraction unbound at 10% or 50% to a fraction unbound at 100%: […]

[2] = molecular target: T1, human FXRalpha ligand binding domain (LBD) (Homo sapiens, UniProt Q96RI1); assay: FRET activity assay (ligand mediated cofactor peptide interaction, LANCE); type: biochemical; settings: GST-FXR-LBD / biotinylated SRC-1 peptide (676-700)
T1 construct: made in house; host or cells: E. coli BL21(DE3), vector pDEST15
T1 sequence (Q96RI1 187-472 isoform Q96RI1-2): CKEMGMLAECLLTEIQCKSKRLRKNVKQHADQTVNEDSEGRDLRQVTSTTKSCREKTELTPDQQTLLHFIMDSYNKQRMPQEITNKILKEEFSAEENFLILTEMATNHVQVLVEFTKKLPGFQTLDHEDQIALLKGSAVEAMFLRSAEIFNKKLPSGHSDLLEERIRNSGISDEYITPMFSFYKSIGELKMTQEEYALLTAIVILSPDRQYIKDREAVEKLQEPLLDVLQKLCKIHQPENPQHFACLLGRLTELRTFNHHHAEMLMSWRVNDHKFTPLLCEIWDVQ
Method: Determination of a ligand mediated cofactor peptide interaction to quantify ligand binding to the nuclear receptor Farnesoid X Receptor (FXR) was performed as follows:
Preparation of human farnesoid X receptor (FXR) alpha ligand binding domain: The human FXRalpha ligand binding domain (LBD) was expressed in E. coli strain BL21(DE3) as an N-terminally glutathione-[…] (GST) tagged fusion protein. The DNA encoding the FXR ligand binding domain was cloned into vector pDEST15 (Invitrogen). Expression was under control of an IPTG inducible T7 promoter. The amino acid boundaries of the ligand binding domain were amino acids 187-472 of Database entry NM_005123 (RefSeq). Expression and purification of the FXR-LBD: An overnight preculture of a transformed E. coli strain was diluted 1:20 in LB-Ampicillin medium and grown at 30° C. to an optical density of OD600=0.4-0.6. Gene expression was then induced by addition of 0.5 mM IPTG. Cells were incubated an additional 6 h at 30° C., 180 rpm. Cells were collected by centrifugation (7000×g, 7 min, room temperature). Per liter of original cell culture, cells were resuspended in 10 ml lysis buffer (50 mM Glucose, 50 mM Tris pH 7.9, 1 mM EDTA and 4 mg/ml lysozyme) and left on ice for 30 min. Cells were then subjected to sonication and cell debris removed via centrifugation (22000×g, 30 min, 4° C.). Per 10 ml of supernatant 0.5 ml prewashed Glutathione 4B sepharose slurry (Qiagen) was added and the suspension kept slowly rotating for 1 h at 4° C. Glutathione 4B sepharose beads were pelleted by centrifugation (2000 g, 15 sec, 4° C.) and washed twice in wash buffer (25 mM Tris, 50 mM KCl, 4 mM MgCl2 and 1M NaCl). The pellet was resuspended in 3 ml elution buffer per liter of original culture (elution buffer: 20 mM Tris, 60 mM KCl, 5 mM MgCl2 and 80 mM glutathione added immediately prior to use as powder). The suspension was left rotating for 15 min at 4° C., the beads pelleted and eluted again with half the volume of elution buffer than the first time. The eluates were pooled and dialysed overnight in 20 mM Hepes buffer (pH 7.5) containing 60 mM KCl, 5 mM MgCl2 as well as 1 mM dithiothreitol and 10% (v/v) glycerol. The protein was analysed by SDS-Page.
The method measures the ability of putative ligands to modulate the interaction between the purified bacterial expressed FXR ligand binding domain (LBD) and a synthetic biotinylated peptide based on residues 676-700 of SRC-1 (LCD2, 676-700). The sequence of the peptide used was B-[…]-COOH where the N-terminus was biotinylated (B). The ligand binding domain (LBD) of FXR was expressed as fusion protein with GST in BL-21 cells using the vector pDEST15. Cells were lysed by sonication, and the fusion proteins purified over glutathione sepharose (Pharmacia) according to the manufacturers instructions. For screening of compounds for their influence on the FXR-peptide interaction, the Perkin Elmer LANCE technology was applied. This method relies on the binding dependent energy transfer from a donor to an acceptor fluorophor attached to the binding partner of interest. For ease of handling and reduction of background from compound fluorescence LANCE technology makes use of generic fluorophore labels and time resolved detection Assays were done in a final volume of 2 5 μl in a 384 well plate, in a Tris-based buffer (20 mM Tris-HCl pH 7,5; 60 mM KCl, 5 mM MgCl2; 35 ng/μl BSA), containing 20-60 ng/well recombinantly expressed FXR-LBD fused to GST, 200-600 nM N-terminally biotinylated peptide, representing SRC1 aminoacids 676-700, 200 ng/well Streptavidin-xIAPC conjugate(Prozyme) and 6-10 ng/well Eu W1024 antiGST (Perkin Elmer). DMSO content of the samples was kept at 1%. After generation of the assay mix and diluting the potentially FXR modulating ligands, the assay was equilibrated for one hour in the dark at room temperature in FIA-plates black 384 well (Greiner). […]

[3] = Aqueous solubility assay, Protocol A, nephelometry method; type: physicochemical; settings: PBS with 5% DMSO, aqueous with cosolvent or surfactant or cyclodextrin, kinetic from dmso stock, PBS pH 7.4, 5% DMSO, 23° C., 24 hours, read-out: Aqueous solubility pH 7.4
Method: Aqueous solubility of compounds was determined by nephelometry or by the shake-flask method as follows:
Protocol A, nephelometry method:
Solubility of compounds was measured in PBS (pH 7.4), 5% DMSO at 23° C. Nepheloskan Ascent (Thermo Electron Corporation) nephelometer was used for measurement of light scattering. Tested compounds were dissolved in DMSO to 10 mM. Prior to measurement the compounds were further diluted with PBS in the wells to final compound concentrations of 100, 70, 50, 35, 25, 17, 12 and <10 μg/ml.
The plates were incubated at room temperature for 24 hours to reach equilibrium and the scattered light was measured. Assay validation: Aqueous solubility of acetylsalicylic acid was determined to validate the assay.
The following compounds of Table 2 exemplify such solubility with “−−” meaning solubility<2 μM, “+” meaning 2 μM solubility 100 μM and “++” meaning solubility

[4] = Rat microsomal stability assay; type: in vitro ADME; settings: liver microsomes, 37° C., NADPH, 45 minute, read-out: Rat liver microsome clearance
Method: Compound stability towards rat liver microsomes was determined as follows: The microsomes are incubated with the test compound at 37° C. in the presence of the co-factor, NADPH, which initiates the reaction. The reaction is terminated by the addition of methanol. Following centrifugation, the supernatant is analysed on the LC-MS/MS. The disappearance of test compound is monitored over a 45 minute time period. The In peak area ratio (compound peak area/internal standard peak area) is plotted against time and the gradient of the line determined. Finally, Intrinsic clearance CLint is computed by the following equations: elimination rate konstant (k)=−gradient; t1/2 (min)=0.693/k; V (μl/mg)=volume of incubation (μl)/protein in incubation (mg); CLint (μl/min/mg protein)=V*0.693/t1/2.

| Compound | Papp A→B at 2 h (Caco-2 permeability) | fraction unbound [1] | IC50 [2] | solubility at 24 h [3] | microsomal CLint [4] | melting point |
| --- | --- | --- | --- | --- | --- | --- |
| CC(C)c1onc(-c2c(Cl)cccc2Cl)c1COc1ccc(N(C)C(=O)c2ccc(C(N)=O)cc2)c(C(F)(F)F)n1 [Example 23, N^1-(6-((3-(2,6-Dichlorophenyl)-5-isopropylisoxazol-4-yl)methoxy)-2-(trifluoromethyl)pyridin-3-yl)-N^1-methylterephthalamide] |  |  | ≤ 1000 nM | 2 to 100 µM (≈ 1.21 to 60.7 µg/mL) |  | 229 °C (dec.) |
| CC(C)c1onc(-c2c(Cl)cccc2Cl)c1COc1ccc(N(C)C(=O)c2ccc(C(=O)N(C)C)cc2)c(C(F)(F)F)n1 [Example 24] | 46 ×10⁻⁶ cm/s | 0.0009 | ≤ 1000 nM |  |  | 166.8 to 167.8 °C |
| CC(C)c1nnn(-c2c(Cl)cccc2Cl)c1COc1ccc(N(C)C(=O)c2ccc(C(=O)O)cc2)c(C(F)(F)F)n1 [Example 29, 4-((6-((1-(2,6-Dichlorophenyl)-4-isopropyl-1H-1,2,3-triazol-5-yl)methoxy)-2-(trifluoromethyl)pyridin-3-yl)(methyl)carbamoyl)benzoic acid] |  |  | ≤ 1000 nM |  |  | 218 to 219 °C |
| Cc1nc(OCc2c(C(C)C)nnn2-c2c(Cl)cccc2Cl)ccc1N(C)S(=O)(=O)c1ccc(C(=O)O)cc1 [Example 30, 4-(N-(6-((1-(2,6-dichlorophenyl)-4-isopropyl-1H-1,2,3-triazol-5-yl)methoxy)-2-methylpyridin-3-yl)-N-methylsulfamoyl)benzoic acid] |  |  | ≤ 1000 nM |  |  | 127.8 to 128.8 °C |
| CC(C)c1onc(-c2c(Cl)cccc2Cl)c1COc1ccc(N(C)Cc2ccc(C(=O)NCCN(C)C)cc2)c(C(F)(F)F)n1 [Example 37, 4-(((6-((3-(2,6-Dichlorophenyl)-5-isopropylisoxazol-4-yl)methoxy)-2-(trifluoromethyl)pyridin-3-yl)(methyl)amino)methyl)-N-(2-(dimethylamino)ethyl)benzamide] |  |  | ≤ 1000 nM |  |  |  |

Now from value to compound:

| Papp A→B at 2 h (Caco-2 permeability) | fraction unbound [1] | IC50 [2] | solubility at 24 h [3] | microsomal CLint [4] | melting point | Compound |
| --- | --- | --- | --- | --- | --- | --- |
| 0.6 ×10⁻⁶ cm/s | 0.0001 |  |  |  |  | Cc1onc(-c2c(Cl)cccc2Cl)c1COc1ccc(NC(=O)c2cccc(C(=O)O)c2)cc1 [Compound C, reference compound] |
| 34 ×10⁻⁶ cm/s | 0.0005 | ≤ 1000 nM | > 100 µM |  |  | CC(C)c1onc(-c2c(Cl)cccc2Cl)c1COc1ccc(NC(=O)c2ccc(C(=O)O)cc2)c(C(F)(F)F)n1 [Example 6, N-{6-[3-(2,6-dichloro-phenyl)-5-isopropyl-isoxazol-4-ylmethoxy]-2-trifluoromethyl-pyridin-3-yl}-terephthalamic acid] |
|  | 0.0003 | 1000 to 10000 nM |  | 149 µL/min/mg |  | Cc1onc(-c2c(Cl)cccc2Cl)c1COc1ccc(NC(=O)c2cccc(C(=O)O)c2)cn1 [Example 15, 3-(6-((3-(2,6-dichlorophenyl)-5-methylisoxazol-4-yl)methoxy)pyridin-3-ylcarbamoyl)benzoic acid] |
|  | 0.003 | ≤ 1000 nM |  | 57 µL/min/mg | 218 °C | Cc1cc(OCc2c(-c3c(Cl)cccc3Cl)noc2C(C)C)cnc1NC(=O)c1ccc(C(=O)O)cc1 [Example 19, N-(5-[3-(2,6-Dichloro-phenyl)-5-isopropyl-isoxazol-4-ylmethoxy]-3-methyl-pyridin-2-yl)-terephthalamic acid] |
|  |  | ≤ 1000 nM | > 100 µM |  | 153.8 to 154.8 °C | CC(C)c1onc(-c2c(Cl)cccc2Cl)c1COc1ccc(NC(=O)c2cccc(C(=O)O)c2)c(C(F)(F)F)n1 [Example 21] |
|  |  | 1000 to 10000 nM |  | 55 µL/min/mg |  | Cc1cc(OCc2c(-c3c(Cl)cccc3Cl)noc2C(C)C)cnc1N(C)C(=O)c1ccc(C(=O)O)cc1 [Example 26, 4-((5-((3-(2,6-dichlorophenyl)-5-isopropylisoxazol-4-yl)methoxy)-3-methylpyridin-2-yl)(methyl)carbamoyl)benzoic acid] |
|  |  | ≤ 1000 nM |  |  | 259.1 to 260.1 °C | CC(C)c1onc(-c2c(Cl)cccc2Cl)c1COc1ccc(NCc2ccc(C(=O)O)cc2)c(C(F)(F)F)n1 [Example 27, 4-((6-((3-(2,6-Dichlorophenyl)-5-isopropylisoxazol-4-yl)methoxy)-2-(trifluoromethyl)pyridin-3-ylamino)methyl)benzoic acid] |

— patent publication US20100184809A1, “Heterocyclic FXR Binding Compounds” (PHENEX PHARMACEUTICALS AG, priority 2006, published 2010)
